We go through 1 compound from patent publication US8110570B2, “Modulators of acetyl-coenzyme A carboxylase and methods of use thereof” (Cropsolution, Inc., priority 2008, dated 2012).

For one test, the system named is C2C12 cells. Kind of test: Fatty acid oxidation assay, [1-14C]palmitate to CO2. In kind it is cell-based, mouse. The settings on record: compared to untreated controls. From the text: The in vivo ACC inhibitory activity of compounds in this invention can be confirmed in cultured cells using standard procedures that are well known to those skilled in the art. For example, since ACC catalyzes the first committed step in fatty acid biosynthesis, the in vivo activity of compounds can be confirmed by measuring their ability to prevent the formation of radiolabeled fatty acids from radiolabeled acetate in cultured human hepatoma cells (HepG2). In addition, since the malonyl-CoA produced by ACC inhibits fatty acid oxidation, the in vivo ACC inhibitory activity of compounds can be further confirmed by measuring the stimulation of fatty acid oxidation in cultured mouse myoblast cells (C2C12).
Fatty acid oxidation assays are performed essentially as described (Beckers et al., Cancer Res, 2007, 67: 8180-8187). Briefly, C2C12 cells are plated at 600,000 cells/T25 flask. The next day, media is changed and the DMSO with or without test compound is added to a final concentration of 0.5% (v/v). After 1 h at 37° C. in atmosphere of 5% CO2, freshly made 2 uCi of FA-free bovine serum albumin-[1-^14C] palmitate complex is added to each flask. The flasks are then sealed with a stopper and incubated 6 h at 37° C. after which evolved CO2 is liberated by injection of perchloric acid to final concentration of 5% and captured by incubating the flasks overnight in the presence of filter paper soaked with 5% KOH. The filters are then air-dried and incubated with scintillation cocktail overnight for equilibrium. Radioactivity is quantified by scintillation counting.

In a further test the target is T1, hACC1-CT (Homo sapiens, UniProt Q13085).
T1 construct: PCR primers were designed for full-length hACC1 and hACC2 using GenBank submissions AY237919 and AJ575592, respectively; His tag (C); made in house; host or cells: baculovirus, Sf9 insect cells
Kind of test: acetyl-CoA/malonyl-CoA isotope exchange assay, CT half-reaction. In kind it is biochemical. As to the method: Overall ACC activity is comprised of two half-reactions, the BC reaction (the ATP-dependent carboxylation of biotin) and the CT reaction (the transfer of the carboxyl group from biotin to acetyl-CoA to form malonyl-CoA). Thus, it is of interest to localize the site of action of ACC inhibitors. To this end, representative compounds are tested in an acetyl-CoA/malonyl-CoA isotope exchange reaction which specifically measures the CT-half reaction. This assay is performed with slight modifications of published procedures (Gregolin et al., J Biol Chem, 1968, 243:4227-4235; Rendina et al., J Agric Food Chem, 1990, 38:1282-1287). Briefly, the reaction mixture (50 μL) contained 50 mM Hepes (pH 7.4), 20 mM K-citrate, 1.5 mM MgSO4, 4 mM malonyl-CoA, 1.67 mM acetyl-CoA, 0.34 mM [^14C]acetyl-CoA (about 60 mCi/mmol), 0.75 mg/mL BSA, and 1% (v/v) DMSO with or without inhibitor. Reactions are initiated by the addition of hACCl (0.3 μg) or hACC2 (0.15 μg) enzyme and incubated at 37° C. for 10 min. Reactions are stopped by addition of a 0.2M sodium arsenate solution containing 1U of phosphotransacetylase (13.5 μL) and incubation at room temperature for 30 min. […] The samples are then resuspended in water (200 μL), added to scintillation cocktail (3 mL), and counted in a scintillation counter to quantify radiolabel incorporated into malonyl-CoA. […]

Each structure is given as a SMILES string.

Regarding `COc1cc(C(=O)N2CCC3(CC2)NC(=O)c2cc(Br)ccc2O3)nc2c(OC)cccc12` [Compound 2, 6-Bromo-1′-[(4,8-dimethoxyquinoline-2-yl)carbonyl]spiro[2H-1,3-benzoxazine-2,4′-piperidine]-4(3H)-one], the “stimulation of fatty acid oxidation” value was 170% with C2C12 cells (C2C12, 0.1 μM) and 320% in the test on C2C12 cells (C2C12, 1 μM). For the same compound, the IC50 at hACC1-CT was 0.1 µM.

One may read the IC50 as the concentration that gives 50% inhibition.
